Target: T1, Dihydroorotase (Escherichia coli (strain K12), UniProt P05020)
T1 sequence (P05020 whole entry): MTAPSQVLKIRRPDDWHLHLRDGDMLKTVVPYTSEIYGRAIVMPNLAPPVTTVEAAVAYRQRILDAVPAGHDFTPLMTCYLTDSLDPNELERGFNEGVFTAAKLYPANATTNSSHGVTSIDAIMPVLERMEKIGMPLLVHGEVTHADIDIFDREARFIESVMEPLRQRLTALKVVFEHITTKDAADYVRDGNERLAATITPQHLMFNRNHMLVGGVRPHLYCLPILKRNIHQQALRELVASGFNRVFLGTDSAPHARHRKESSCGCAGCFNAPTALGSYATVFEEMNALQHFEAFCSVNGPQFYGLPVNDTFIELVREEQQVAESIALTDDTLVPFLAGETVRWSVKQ
Assay: Inhibition Assay
Conditions: pH 7
Excerpt: The DHO-catalyzed hydrolysis of dihydrooroate was monitored spectrophotoetrically at 230 and 280 nm using a SPECTRAmax (Molecular Device) plate reader.

O=C1CC(=O)N[C@H](C(=O)O)C1 [4,6-dioxo-piperidine-2-carboxylic acid, 3] was tested, and the Ki was 76 mM.

Source: BindingDB's records for doi:10.1016/j.bioorg.2005.08.001 (Texas A&M University, 2005)
